Test results from patent US20260042753A1 (Merck Patent GmbH, priority 2019, published 2026).
Like-named read-outs stand apart in the source and are kept apart here.

Assays:
c-Kit(V654A) = c-Kit(V654A) (Homo sapiens, UniProt P10721, V654A); assay: c-Kit(V654A) assay; format: biochemical
In short: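 Radiometric filter-binding read-out: after 3% phosphoric acid stop, peptide-incorporated 33P on filtermat scintillation-counted. Enzyme: human c-Kit V654A, residues 544–end, N-terminal GST fusion.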

[1] = target: mutant cKIT (560-576 and V654A) in GIST430/654 cell line (Homo sapiens (Human), UniProt P10721, DEL560-576/V654A); assay: Cellular testing of cKIT mutant inhibitors: phospho-Y307-cKIT Luminex assay in GIST430/654 cells; format: cell-based; conditions: read-out: GIST 430/654 IC50
In short: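 GIST430/654 cells carrying constitutively active cKIT (Δ560-576/V654A) were grown with 100 nM imatinib, then treated with serially diluted compound for 45 min. Lysates were captured on anti-total-cKIT Luminex beads overnight at 4 °C and probed for phospho-Y307-cKIT. IC50 was fitted from percent of 0.3% DMSO control.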

[2] = Table 1, cKIT autophosphorylation, compounds 45 min
[3] = Table 2, corresponding triazole derivatives
[4] = Table 2, isoxazole derivatives presently described

Sequence of mutant cKIT (560-576 and V654A) in GIST430/654 cell line (P10721 other isoform, or with tags, fused parts or gaps V654A/del 1-25/del 560-576 limits assumed): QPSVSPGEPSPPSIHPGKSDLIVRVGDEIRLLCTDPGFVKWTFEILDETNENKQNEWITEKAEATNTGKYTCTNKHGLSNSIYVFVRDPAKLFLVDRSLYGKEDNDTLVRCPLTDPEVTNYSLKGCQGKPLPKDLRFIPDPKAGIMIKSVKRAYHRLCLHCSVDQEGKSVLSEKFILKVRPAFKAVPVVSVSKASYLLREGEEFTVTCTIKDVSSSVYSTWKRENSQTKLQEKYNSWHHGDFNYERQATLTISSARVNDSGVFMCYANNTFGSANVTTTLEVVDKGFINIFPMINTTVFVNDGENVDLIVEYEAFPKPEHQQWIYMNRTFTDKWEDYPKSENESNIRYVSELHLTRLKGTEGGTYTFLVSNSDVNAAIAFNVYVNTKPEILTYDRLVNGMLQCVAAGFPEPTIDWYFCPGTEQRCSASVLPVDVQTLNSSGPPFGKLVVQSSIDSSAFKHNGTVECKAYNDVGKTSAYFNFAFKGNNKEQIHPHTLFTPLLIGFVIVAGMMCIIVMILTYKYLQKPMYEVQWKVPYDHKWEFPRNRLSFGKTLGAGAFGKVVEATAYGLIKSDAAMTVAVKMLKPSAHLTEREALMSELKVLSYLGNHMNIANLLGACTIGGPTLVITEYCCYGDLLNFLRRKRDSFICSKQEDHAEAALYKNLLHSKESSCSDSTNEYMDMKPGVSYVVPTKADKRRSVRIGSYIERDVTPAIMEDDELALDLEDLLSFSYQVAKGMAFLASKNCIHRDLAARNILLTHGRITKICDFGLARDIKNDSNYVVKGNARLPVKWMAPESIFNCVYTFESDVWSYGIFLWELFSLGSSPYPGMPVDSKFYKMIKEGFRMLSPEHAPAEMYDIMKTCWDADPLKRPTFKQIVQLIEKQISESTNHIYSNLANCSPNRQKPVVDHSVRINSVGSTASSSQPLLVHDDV

| Structure (SMILES) | IC50 (c-Kit(V654A); Table 1, 200 μM ATP) | IC50 [1, 2] | other results |
| --- | --- | --- | --- |
| COCCOc1cc2[nH]nc(-c3cc(-c4ccc(C(=O)N5C[C@H]6COC[C@H]6C5)c(F)c4)no3)c2cc1F [A71, (2-fluoro-4-{5-[5-fluoro-6-(2-methoxy-ethoxy)-1H-indazol-3-yl]-isoxazol-3-yl}-phenyl)-(cis)-tetrahydro-furo[3,4-c]pyrrol-5-yl-methanone] | 4.3 nM | 90 nM | – |
| CCOc1cc2[nH]nc(-c3cc(-c4ccc(C(=O)N5CCN(C6COC6)CC5)cc4)no3)c2cc1F [A229, 6-ethoxy-5-fluoro-3-(3-{4-[4-(oxetan-3-yl)piperazine-1-carbonyl]phenyl}-1,2-oxazol-5-yl)-1H-indazole] | 47 nM | 1100 nM | – |
| COCCOc1cc2[nH]nc(-c3cc(-c4ccc(C(=O)N5CC(N6CCOC[C@@H]6C)C5)cc4)no3)c2cc1F [A200, 5-fluoro-6-(2-methoxyethoxy)-3-[3-(4-{3-[(3S)-3-methylmorpholin-4-yl]azetidine-1-carbonyl}phenyl)-1,2-oxazol-5-yl]-1H-indazole] | 1.3 nM | 19 nM | – |
| COCCOc1cc2[nH]nc(-c3cc(-c4ccc(C(=O)N5CCC[C@@H]5C(C)(C)O)nc4)no3)c2cc1F [A109, (5-{5-[5-fluoro-6-(2-methoxy-ethoxy)-1H-indazol-3-yl]-isoxazol-3-yl}-pyridin-2-yl)-[(R)-2-(1-hydroxy-1-methyl-ethyl)-pyrrolidin-1-yl]-methanone] | 9.1 nM | 430 nM | – |
| COCCOc1cc2[nH]nc(-c3cc(-c4ccc(C(=O)N5CC(n6ccnc6)C5)cc4)no3)c2cc1F [A85, 5-fluoro-3-(3-{4-[3-(1H-imidazol-1-yl)azetidine-1-carbonyl]phenyl}-1,2-oxazol-5-yl)-6-(2-methoxyethoxy)-1H-indazole] | 0.63 nM | 130 nM | – |
| CCOc1ccc(-c2cc(-c3n[nH]c4cc(OCCOC)c(F)cc34)on2)cn1 [A38, 3-[3-(6-ethoxypyridin-3-yl)-1,2-oxazol-5-yl]-5-fluoro-6-(2-methoxyethoxy)-1H-indazole] | 35 nM | 4400 nM | – |
| CC(C)(O)[C@@H]1CCCN1C(=O)c1ccc(-c2cc(-c3n[nH]c4cc(Br)ccc34)on2)cc1 [A4, {4-[5-(6-bromo-1H-indazol-3-yl)-isoxazol-3-yl]-phenyl}-[(S)-2-(1-hydroxy-1-methyl-ethyl)-pyrrolidin-1-yl]-methanone] | 13 nM | 330 nM | – |
| COCCOc1cc2[nH]nc(-c3cc(-c4ccc(C(=O)N5CC(C)(O)C5)cc4)no3)c2cc1F [A34, 1-(4-{5-[5-fluoro-6-(2-methoxyethoxy)-1H-indazol-3-yl]-1,2-oxazol-3-yl}benzoyl)-3-methylazetidin-3-ol] | 0.83 nM | 120 nM | – |
| COCCOc1cc2[nH]nc(-c3cc(-c4ccc(C(=O)N5CC[S+]([O-])CC5)cc4)no3)c2cc1F [A78, 4-(4-{5-[5-fluoro-6-(2-methoxyethoxy)-1H-indazol-3-yl]-1,2-oxazol-3-yl}benzoyl)-1lambda4-thiomorpholin-1-one] | 0.76 nM | 160 nM | – |
| COCCOc1cc2[nH]nc(-c3cn(-c4ccc(C(=O)N5CCC[C@H]5C(C)(C)O)cc4)nn3)c2cc1F [reference compound] | – | – | IC50 (c-Kit(V654A); [3]): 2.5 nM; IC50 [1, 3]: 79 nM |
| COCCOc1cc2[nH]nc(-c3cc(-c4ccc(C(=O)N5CCC6(COC6)C5)cc4)no3)c2cc1F [A158, 5-fluoro-6-(2-methoxyethoxy)-3-[3-(4-{2-oxa-6-azaspiro[3.4]octane-6-carbonyl}phenyl)-1,2-oxazol-5-yl]-1H-indazole] | 0.46 nM | 32 nM | – |
| COCCOc1cc2[nH]nc(-c3cc(-c4ccc(C(=O)N5CCC[C@@H]5CNS(C)(=O)=O)cc4)no3)c2cc1F [A94, N-{[(2R)-1-(4-{5-[5-fluoro-6-(2-methoxyethoxy)-1H-indazol-3-yl]-1,2-oxazol-3-yl}benzoyl)pyrrolidin-2-yl]methyl}methanesulfonamide] | 0.58 nM | 100 nM | – |
| COCCOc1cc2[nH]nc(-c3cc(-c4ccc(C(=O)N5CC(N6CCN(C)CC6)C5)cc4)no3)c2cc1Cl [A65, (4-{5-[5-chloro-6-(2-methoxy-ethoxy)-1H-indazol-3-yl]-isoxazol-3-yl}-phenyl)-[3-(4-methyl-piperazin-1-yl)-azetidin-1-yl]-methanone] | 0.89 nM | 160 nM | – |
| COCCOc1cc2[nH]nc(-c3cc(-c4ccc(C(=O)N(C)C)cc4)no3)c2cc1C#N [A6, 4-{5-[5-cyano-6-(2-methoxyethoxy)-1H-indazol-3-yl]-1,2-oxazol-3-yl}-N,N-dimethylbenzamide] | 4.1 nM | 150 nM | – |
| COCCOc1cc2[nH]nc(-c3cc(-c4ccc(C(=O)N5CC[C@H]5CS(C)(=O)=O)cc4)no3)c2cc1F [A152, 5-fluoro-3-(3-{4-[(2S)-2-(methanesulfonylmethyl)azetidine-1-carbonyl]phenyl}-1,2-oxazol-5-yl)-6-(2-methoxyethoxy)-1H-indazole] | 0.88 nM | 64 nM | – |
| COCCOc1cc2[nH]nc(-c3cc(-c4ccc(C(=O)N5C[C@@H]6CN(C7COC7)C[C@@H]6C5)cc4)no3)c2cc1F [A216, 3-(3-{4-[(cis)-5-(oxetan-3-yl)-octahydropyrrolo[3,4-c]pyrrole-2-carbonyl]phenyl}-1,2-oxazol-5-yl)-5-fluoro-6-(2-methoxyethoxy)-1H-indazole] | 1.1 nM | 27 nM | – |
| COCCOc1cc2[nH]nc(-c3cc(-c4ccc(N=S(C)(C)=O)cc4)no3)c2cc1F [A47, [(4-{5-[5-fluoro-6-(2-methoxyethoxy)-1H-indazol-3-yl]-1,2-oxazol-3-yl}phenyl)imino]dimethyl-lambda6-sulfanone] | 2.4 nM | 77 nM | – |
| COCCOc1cc2[nH]nc(-c3cc(-c4ccc(C(=O)N5CCN(C6COC6)CC5)c(C)c4)no3)c2cc1F [A193, (4-{5-[5-fluoro-6-(2-methoxy-ethoxy)-1H-indazol-3-yl]-isoxazol-3-yl}-2-methyl-phenyl)-(4-oxetan-3-yl-piperazin-1-yl)-methanone] | 2.5 nM | 73 nM | – |
| COCCOc1cc2[nH]nc(-c3cc(-c4ccc(C(=O)N5CCOC[C@@H]5COC)cc4)no3)c2cc1F [A110, 5-fluoro-6-(2-methoxyethoxy)-3-(3-{4-[(3S)-3-(methoxymethyl)morpholine-4-carbonyl]phenyl}-1,2-oxazol-5-yl)-1H-indazole] | 0.76 nM | 50 nM | – |
| COCCOc1cc2[nH]nc(-c3cc(-c4ccc(C(=O)N5CC(F)C5)cc4)no3)c2cc1F [A26, 5-fluoro-3-{3-[4-(3-fluoroazetidine-1-carbonyl)phenyl]-1,2-oxazol-5-yl}-6-(2-methoxyethoxy)-1H-indazole] | 2.1 nM | 45 nM | – |
| COCCOc1cc2[nH]nc(-c3cc(-c4ccc(C(=O)N5CCN(C)C[C@@H]5C)cc4)no3)c2cc1F [A3, 3-(3-{4-[(2S)-2,4-dimethylpiperazine-1-carbonyl]phenyl}-1,2-oxazol-5-yl)-5-fluoro-6-(2-methoxyethoxy)-1H-indazole] | 1.4 nM | 38 nM | IC50 (c-Kit(V654A); [4]): 1.4 nM; IC50 [1, 4]: 38 nM |
| COCCOc1cc2[nH]nc(-c3cc(-c4ccc(C(=O)N5CC[C@@H]5CO)cc4)no3)c2cc1F [A97, [(2R)-1-(4-{5-[5-fluoro-6-(2-methoxyethoxy)-1H-indazol-3-yl]-1,2-oxazol-3-yl}benzoyl)azetidin-2-yl]methanol] | 0.97 nM | 41 nM | – |
| O=C(c1ccc(-c2cc(-c3n[nH]c4cc(OCCO)c(F)cc34)on2)cc1)N1CCN(C2COC2)CC1 [A205, 2-{[5-fluoro-3-(3-{4-[4-(oxetan-3-yl)piperazine-1-carbonyl]phenyl}-1,2-oxazol-5-yl)-1H-indazol-6-yl]oxy}ethan-1-ol] | 23 nM | 130 nM | – |
| COCCOc1cc2[nH]nc(-c3cc(-c4ccc(Oc5ccccn5)cc4)no3)c2cc1F [A143, 5-fluoro-6-(2-methoxyethoxy)-3-{3-[4-(pyridin-2-yloxy)phenyl]-1,2-oxazol-5-yl}-1H-indazole] | 18 nM | 860 nM | – |
| CNCC1CCCN1C(=O)c1ccc(-c2cc(-c3n[nH]c4cc(OCCOC)c(F)cc34)on2)cc1 (stereo not drawn) [A222, {[1-(4-{5-[5-fluoro-6-(2-methoxyethoxy)-1H-indazol-3-yl]-1,2-oxazol-3-yl}benzoyl)pyrrolidin-2-yl]methyl}(methyl)amine] | 0.52 nM | 110 nM | – |
| COCCOc1cc2[nH]nc(-c3cc(-c4ccc(C(=O)N5CCOC[C@@H]5C)cc4)no3)c2cc1F [A115, 5-fluoro-6-(2-methoxyethoxy)-3-(3-{4-[(3S)-3-methylmorpholine-4-carbonyl]phenyl}-1,2-oxazol-5-yl)-1H-indazole] | 0.83 nM | 45 nM | – |
| COCCOc1cc2[nH]nc(-c3cc(-c4ccc(C)nc4)no3)c2cc1F [A22, 5-fluoro-6-(2-methoxyethoxy)-3-[3-(6-methylpyridin-3-yl)-1,2-oxazol-5-yl]-1H-indazole] | 32 nM | 2200 nM | – |
| COCCOc1cc2[nH]nc(-c3cn(-c4ccc(N5CCN(C)CC5)cc4)nn3)c2cc1F [reference compound] | – | – | IC50 (c-Kit(V654A); [3]): 15 nM; IC50 [1, 3]: 1000 nM |
| COCCOc1cc2[nH]nc(-c3cc(-c4ccc(C(=O)N5C[C@H]6COC[C@H]6C5)cc4)no3)c2cc1F [A202, 3-(3-{4-[(cis)-hexahydro-1H-furo[3,4-c]pyrrole-5-carbonyl]phenyl}-1,2-oxazol-5-yl)-5-fluoro-6-(2-methoxyethoxy)-1H-indazole] | 1.1 nM | 19 nM | – |
